Reference: US20260240820A1, “METHOD FOR CONTROLLING MEMBRANE POTENTIAL-DEPENDENT ION CHANNEL THROUGH TYPE I TASTE RECEPTORS (T1RS)” (ION CHAT RESEARCH CORPORATE, priority 2022, published 2026)
Entries after “also recorded” stand apart in the source; their conditions may differ. Like-named read-outs stand apart in the source and are kept apart here.

Assays:
[1] = system: VGSC of SH-SY5Y cells (Nav1.7, Nav1.2, Nav1.3); assay: Patch-clamp recording of VGSC current in differentiated SH-SY5Y cells; format: cell-based, human; conditions: 5 μM
Description: Furthermore, the inventors focused on the relationship between taste receptors, particularly the sweet or umami receptors containing the T1R3 subunit, which are widely expressed in the brain and nervous system, including the hippocampus and cortex. They used human neuroblastoma cells (SH-SY5Y) that functionally express Nav1.2, Nav1.3, and Nav1.7 (as reported in non-patent literature 8), as well as HEK cells stably expressing Nav1.5 (with endogenous expression of T1R1, T1R2, and T1R3). They observed the effects of taste stimuli on sodium channel activation. By reducing the expression of T1R1 and T1R3 genes using silencing vectors, they confirmed that the effects on sodium channel currents induced by taste stimuli act through taste receptor GPCRs.
The SH-SY5Y cell culture medium was prepared by mixing DMEM (Sigma-Aldrich) and F-12 (Sigma-Aldrich) in equal proportions. To induce neuronal-like differentiation, the medium contained 1% FBS (BioWest), 5% 40 mM L-Glutamine (Fuji Film), and 1% MEM non-essential amino acids (Wako Pure Chemical Industries). During differentiation, SH-SY5Y cells were cultured for at least 5 days with the addition of 10 μM/ml retinoic acid (Fuji Film). In this document, “SH-SY5Y cells” refer to the SH-SY5Y cell line differentiated into neuronal-like cells.

[2] = system: VGSC; assay: Patch-clamp recording of VGSC current, cell type not specified or several cell types (summary statements); format: cell-based, human
[3] = system: voltage-dependent potassium channel current of SH-SY5Y cells; assay: Voltage clamp recording of outward potassium current in SH-SY5Y cells; format: cell-based, human; conditions: 5 μM
Description: The inward current represents the transient peak observed immediately after stimulation, while the outward current measures the average value during the last 50 ms of rectangular pulse stimulation.

[4] = system: Nav1.5 in T1R3-silenced HEK cells; assay: VGSC current in HEK Nav1.5 cells with silenced T1R3; format: cell-based, human; conditions: for Effect on VGSC current: 20 μM (b565)
Procedure, shortened: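 VGSC currents were recorded in HEK-Nav1.5 cells with T1R3 knocked down by a miRNA expression vector, stimulated every 8 s. The effect of Aβ25-35 peptide was compared with control HEK-Nav1.5 cells.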

[5] = system: HEK Nav1.5 cells; assay: GFP-Tubulin / GFP-Actin cytoskeleton observation in HEK Nav1.5 cells; format: cell-based, human
Description: To observe the impact of cinacalcet and Aβ1-42 peptide on microfilament (actin) fiber structures, we labeled cells with GFP-Actin (FIG. 34). […] This experimental approach, using GFP-Tubulin, GFP-Actin, or other fluorescent proteins to label microtubules and microfilaments, can be used to screen compounds that regulate the activity of ion channels and neuronal function-controlling proteins. Additionally, simultaneous labeling of tubulin and actin can be achieved using fluorescent antibodies or phalloidin after cell fixation.

[6] = system: SH-SY5Y cells; assay: Action potentials of differentiated SH-SY5Y cells (current clamp, NanoCharge method); format: cell-based, human; conditions: pH6; current clamp
Description: Next, using the current-clamp mode, we applied current stimulation and recorded action potentials from differentiated SH-SY5Y cells (FIG. 5, from the lower to the upper part of the figure, rectangular wave current stimulation was applied. The current strengths were 6, 8, 10, and 12 pA from the bottom). Before the application of Aβ25-35 peptide, action potentials were not induced at stimulation currents of 6 pA and 8 pA, but action potentials were recorded at stronger stimulation currents (10 pA and 12 pA).
By using magnetic conductive nanoparticles as intracellular electrodes for measuring the neuronal action potentials of differentiated SH-SY5Y cells, and combining this with a capacitive potential detection device to measure changes in intracellular potentials, the spontaneous action potentials of these cells were measured. Specifically, 6.25 nM of the T1R3 agonist Aβ25-35 peptide was added to 400 μl of SH-SY5Y cell culture medium, and the spontaneous action potentials before and after the addition of Aβ25-35 peptide were measured to observe the changes.
This membrane potential recording method focuses on the magnetic conductive nanoparticles penetrating the cell membrane, the cover glass on which the cells are seeded, and the electrode placed below the cover glass forming a capacitor. The charge (Q) charged to this capacitor is recorded as the membrane potential in terms of charge rather than voltage changes. Since the charge (Q) is obtained from Q=CV, where C is the capacitance and V is the potential, the charge changes measured here are influenced by the capacitor (C) (FIG. 43).

[7] = when used for treatment of hypercalcemia; cited from earlier work
[8] = system: Nav1.5; assay: Patch-clamp (voltage clamp) recording of VGSC current in HEK cells stably expressing Nav1.5; conditions: for Effect on VGSC current enhanced by Aβ42/40 (AD-D): applied after Aβ42/40 (AD-D)
[9] = system: HEK cells; assay: Cell morphology observation (bright-field), HEK cells; format: cell-based, human
Description: (§1) In a previous implementation example (FIG. 54), it was shown that Aβ peptides and artificial sweeteners cause depolymerization of the cytoskeleton. […] To easily compare and confirm the morphological changes before and after the application of Aβ1-40, the areas of interest were circled with dashed lines. Observations were made using bright-field microscopy. Images were captured with a camera (UI-3880CP-M) from IDS mounted on the microscope, and the images were imported to a PC using the software that came with the camera. Further image processing was done using ImageJ (Rasband, 1997-2018).
The solution (HHBS*) was adjusted to achieve the final concentration values shown in Table 11 for Aβ42/40, and the changes in cell morphology were observed. Indicators included cell body contraction, extension, or the presence of lamellipodia ruffling around the cell periphery.

[10] = system: SH-SY5Y cells; assay: Cell morphology observation, SH-SY5Y cells; format: cell-based, human; conditions: neuron-like differentiated SH-SY5Y cells
[11] = system: VGSC of NG108-15 cells; assay: Whole-cell patch-clamp of VGSC current in differentiated NG108-15 cells; format: cell-based, mouse/rat; conditions: subsequent application
Description: Specifically, we used mouse/rat hybridoma cells NG108-15 differentiated into neuronal-like cells using forskolin and low-concentration FBS treatment, along with human-derived cells expressing human Nav1.5. We recorded VGSC currents using the whole-cell patch-clamp method and observed the effects of Aβ peptides (FIG. 58A-1, B). The term “Aβ peptides” here refers to a mixture of Aβ40 and Aβ42. We used two types of mixtures similar to those used in the experiments on cell morphology and lamellipodia dynamics. One mixture corresponds to the Aβ42/40 ratio observed in cerebrospinal fluid from healthy individuals (NDC: non-demented control), and the other corresponds to the ratio observed in cerebrospinal fluid from Alzheimer's disease patients with cognitive impairment (AD-D).

[12] = system: Nav1.6; assay: Patch-clamp recording of VGSC current in HEK (Nav1.6) cells; format: cell-based, human
Description: The cells used in the previous (18-1) experiment were cardiac-type VGSC cells. In this experiment, HEK (Nav1.1) and HEK (Nav1.6) cells, which are considered neuronal VGSC cells, were created. The effects of four peptides—Aβ25-35, Aβ1-38, Aβ1-40, and Aβ1-42—were examined using the same experimental protocol as in (18-1). […]

[13] = system: Nav1.1; assay: Patch-clamp recording of VGSC current in HEK (Nav1.1) cells; format: cell-based, human
Description: The cells used in the previous (18-1) experiment were cardiac-type VGSC cells. In this experiment, HEK (Nav1.1) and HEK (Nav1.6) cells, which are considered neuronal VGSC cells, were created. The effects of four peptides—Aβ25-35, Aβ1-38, Aβ1-40, and Aβ1-42—were examined using the same experimental protocol as in (18-1).

[14] = system: HUEhT-1 cells; assay: Cell morphology observation, HUEhT-1 umbilical vein endothelial cells; format: cell-based, human; conditions: Aβ1-40 at 12.5 nM
Description: as §1

[15] = system: endogenous T1R GPCR of HEK cells; assay: Intracellular calcium (Cal-520) in HEK cells stably expressing Nav1.1 with endogenous T1R GPCR; format: cell-based, human; conditions: 10 nM then 20 nM for Aβ1-40 and Aβ1-42
Description: Specifically, experiments were conducted as follows using HEK cells stably expressing Nav1.1 (FIG. 45). The calcium-sensitive reagent (Cal-520, AAT Bioquest) was incubated at 37° C. for 60 minutes, followed by incubation at room temperature for 30 minutes, and then changes in intracellular calcium were measured using a fluorescence microscope. […] Initially, 10 nM, followed by 20 nM of Aβ1-40 was applied after 5 minutes (arrow). […] A total of 6 cell groups from two independent experiments were measured, averaged by the maximum fluorescence response value, and the mean and standard error (stderr) were calculated and plotted. […] 10 nM, followed by 20 nM of Aβ1-42 was applied after 5 minutes (arrow). […] A total of 12 cell groups from two independent experiments were measured, averaged by the minimum fluorescence response value, and the mean and standard error (stderr) were calculated and plotted. Similar to the experimental results using the patch-clamp method when Aβ peptide was applied to Nav1.5, it was confirmed from intracellular calcium measurements that the effects of Aβ1-40 and Aβ1-42 were different.

[16] = system: T1R3 inherent in HEK cells; assay: Impedance of HEK Nav1.5 cell sheet; format: cell-based, human
Description: Specifically, cells were cultured on a conductive glass (FTO glass, thickness 2.2 mm) electrode plate to form a sheet, and the change in impedance value of the cell sheet was measured by applying current stimulation between the conductive glass covered with cells and the extracellular solution. The measurement experiment was conducted using the voltage-clamp method. A voltage pulse of 1 mV (1 Hz, 220 ms width) was applied between the silver chloride electrode placed in the extracellular solution and the electrode plate, and the change caused by the amyloid peptide was measured as a change in current (I).
By measuring the current response (I) occurring there, the resistance ® of the entire cell sheet to the applied voltage (1 mV) can be calculated from Ohm's law (V=IR>R=V/I). As shown in (FIG. 46), it was confirmed that the T1R3 antibody inhibits the effect of Aβ1-40 peptide.

C[C@@H](NCCCc1cccc(C(F)(F)F)c1)c1cccc2ccccc12 [Cinacalcet]
Effect on inward VGSC current [1]: inhibited
Effect on inward VGSC current ([1]; listed as cinacalcet): complete inhibition of both currents
Effects on VGSCs [2]: Inhibition of VGSCs
Effect on VGSC activity ([2]; 5 μM): completely inhibits VGSC activity
Inhibitory effect on VGSC when tubulin polymerization is inhibited by Colchicine ([2]; Colchicine treated cells): still inhibited VGSC currents
Inhibitory effect on VGSC when actin polymerization is inhibited by Cytochalasin D ([2]; Cytochalasin D treated cells): inhibited by cytochalasin D treatment
Required concentration for VGSC inhibition ([2]; HEK Nav1.5 and SH-SY5Y): 5 µM
Effects on VGSCs ([2]; listed as cinacalcet): inhibited human VGSC
Effect on outward potassium current [3]: inhibited
Effect on outward potassium current ([3]; listed as cinacalcet): complete inhibition of both currents
Effect on VGSC current [4]: no change in VGSC current was observed
Effect on VGSC current ([4]; listed as cinacalcet): no observable effect
Effect on VGSC in T1R3-silenced cells ([4]; listed as cinacalcet): no VGSC inhibitory effect was observed; also recorded: T1R3 silencing nullifies ab25-35's
Microfilament structure (GFP-Actin) [5]: condensed GFP-Actin structures
Effect on VGSC-dependent action potentials under acidic conditions [6]: inhibited VGSC-dependent action potentials
Plasma concentration [7]: 50 nM
Effect on VGSC (Na+) current under acidic conditions ([8]; 5 μM, pH 6): gradually inhibited; also recorded: exhibited VGSC inhibition
Effect on VGSC currents ([8]; 20 μM, control HEK Nav1.5 cells): completely inhibits VGSC currents
Effect on leak (baseline) current ([8]; when VGSC inhibition nearly complete): reduced leak currents

NCCC(=O)O [β-alanine]
Effect on cell motility ([9]; 5 μM): promotes cell motility
Effect on cells contracted and inactive due to Aβ AD ([9]; HEK cells, data not shown): induces activity in cells
Lamellipodia activity [10]: enhances lamellipodia activity
Effect on VGSC current after Aβ42/40 (AD-D) [11]: did not cause any further changes
Effect on VGSC current enhanced by Aβ42/40 (AD-D) [8]: reversed; also recorded: reverse the enhancement of VGSC current; also recorded: nearly returned to the control level
Effect on VGSC current enhanced by Aβ42/40 (AD-D) ([8]; listed as D-alanine): nearly restoring it to control levels

Aβ1-40: amyloid β peptide, Sequence No. 3
Effect on VGSC current [12]: VGSC enhancement
Effect on VGSC current [13]: VGSC enhancement
Effect on VGSC in T1R3-silenced cells [4]: is lost
Change in cell morphology ([9]; Aβ1-40 at 12.5 nM): a decrease in cell area/volume
Change in cell morphology [14]: a decrease in cell area/volume
Change in cell morphology ([14]; listed as Aβ40): significant cell body contraction (atrophy)
Change in intracellular calcium [15]: increased intracellular calcium levels; also recorded: continued to slowly increase
Change of impedance of cell sheet [16]: decrease in impedance
Effect on VGSC current amplitude [8]: reduced VGSC currents for both prepulse potentials
Shift of steady-state inactivation (S-S) curve of VGSC [8]: to the left; also recorded: more towards the hyperpolarizing direction
